Reference: patent US20250051275A1, “PYRROLE DERIVATIVE OR PHARMACEUTICALLY OR SITOLOGICALLY ACCEPTABLE SALTS THEREOF, AND COMPOSITION FOR PREVENTION, AMELIORATION OR TREATMENT OF GASTROINTESTINAL DISORDERS COMPRISING SAME AS ACTIVE INGREDIENT” (HANA PHARM CO., LTD., priority 2021, published 2025)
Where two headings read alike, the source gives them in different places.

Tests used:
[1] = molecular target: proton pump (H+/K+-ATPase) (Sus scrofa (Pig), UniProt P19156); assay: Inhibitory activity on proton pump (H+/K+-ATPase) activity; assay type: biochemical; conditions: porcine gastric mucosal microsomes, 5 mM KCl, pH 6.4
Sequence of proton pump (H+/K+-ATPase) (P19156 2-1034): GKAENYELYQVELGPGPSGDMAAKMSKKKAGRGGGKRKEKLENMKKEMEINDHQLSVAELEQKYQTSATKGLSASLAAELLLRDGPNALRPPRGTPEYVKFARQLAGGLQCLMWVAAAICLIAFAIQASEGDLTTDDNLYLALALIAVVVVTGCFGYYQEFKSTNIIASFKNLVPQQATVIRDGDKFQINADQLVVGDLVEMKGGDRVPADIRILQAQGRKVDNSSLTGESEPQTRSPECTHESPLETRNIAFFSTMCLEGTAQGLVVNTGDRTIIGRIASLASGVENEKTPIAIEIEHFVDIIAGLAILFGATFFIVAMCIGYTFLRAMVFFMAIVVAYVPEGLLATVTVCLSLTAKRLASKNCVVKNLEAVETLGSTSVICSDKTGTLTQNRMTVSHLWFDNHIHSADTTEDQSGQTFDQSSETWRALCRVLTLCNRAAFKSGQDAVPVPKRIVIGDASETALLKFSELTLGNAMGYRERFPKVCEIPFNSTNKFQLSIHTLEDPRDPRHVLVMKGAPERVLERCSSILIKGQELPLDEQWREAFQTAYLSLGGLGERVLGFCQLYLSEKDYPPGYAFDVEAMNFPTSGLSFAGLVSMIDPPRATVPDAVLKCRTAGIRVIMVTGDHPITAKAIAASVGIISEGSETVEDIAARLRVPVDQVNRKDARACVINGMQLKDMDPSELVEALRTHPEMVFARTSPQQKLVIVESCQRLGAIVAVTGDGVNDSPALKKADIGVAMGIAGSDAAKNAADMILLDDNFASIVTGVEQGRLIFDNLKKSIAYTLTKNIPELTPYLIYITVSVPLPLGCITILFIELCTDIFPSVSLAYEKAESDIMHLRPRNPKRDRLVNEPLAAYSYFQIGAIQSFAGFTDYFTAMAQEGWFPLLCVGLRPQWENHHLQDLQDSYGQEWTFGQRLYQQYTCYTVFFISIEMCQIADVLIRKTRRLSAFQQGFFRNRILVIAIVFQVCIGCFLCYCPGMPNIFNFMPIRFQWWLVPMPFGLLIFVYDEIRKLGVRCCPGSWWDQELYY
Sequence of proton pump (H+/K+-ATPase) (P18434 whole entry partner): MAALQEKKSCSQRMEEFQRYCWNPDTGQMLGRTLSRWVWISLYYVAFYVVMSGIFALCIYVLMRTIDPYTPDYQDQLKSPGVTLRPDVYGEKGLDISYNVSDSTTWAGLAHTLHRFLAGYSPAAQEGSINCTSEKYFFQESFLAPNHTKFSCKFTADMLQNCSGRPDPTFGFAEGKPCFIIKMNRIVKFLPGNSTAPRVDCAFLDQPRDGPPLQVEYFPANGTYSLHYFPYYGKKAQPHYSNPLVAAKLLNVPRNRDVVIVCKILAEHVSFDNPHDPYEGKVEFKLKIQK
Experimental: The compounds indicated in the above examples were tested for their inhibitory activity on proton pump (H+/K+-ATPase) activity as follows by applying the method disclosed in the literature. According to the methods of Nobuyuki Takahashi and Yukinori Take [J Pharmacol Exp Ther. 2018 February; 364(2):275-286], the gastric mucosal microsome fraction was isolated from the porcine stomach. The stomach isolated from the pig was washed first with tap water, only the fundus was cut, and then washed (a second time) with cold PBS. The gastric mucosa was separated by scraping, homogenized with 250 mM sucrose solution, and centrifuged at 20,000 g at 4° C. for 30 minutes. Only the supernatant was centrifuged at 115,000 g at 4° C. for 30 minutes, and the precipitate was suspended in 250 mM sucrose solution, added to cover with 7% Ficoll solution, and centrifuged at 135,000 g at 4° C. for 60 minutes. The microsome fraction formed at the interface was recovered and suspended in 250 mM sucrose solution, and centrifuged at 135,000 g, 4° C. for 60 minutes, and the precipitate was dissolved in 0.9% NaCl. The isolated gastric mucosal microsome fraction was quantified by using the Bicinchoninic Acid (BCA) kit (Thermo).
60 μl of enzyme reaction solution (a test compound at a given concentration, […] of gastric mucosal microsomes, 3 mM of MgSO4, 5 mM of KCl, 40 mM of Tris-HCl pH 6.4, and 0.5 mM of adenosine triphosphate) was added to each well of a 96-well plate and reacted at 37° C. for 60 minutes, and 30 μl of 10% SIDS was added to stop the enzyme reaction. 200 μl of detection solution (in which 10% L-ascorbic acid with pH 5.0 was mixed with 35 mM of ammonium molybdate tetrahydrate/15 mM of zinc acetate with pH 5.0 at the ratio of 4:1) was added and reacted at 37° C. for 30 minutes, and the absorbance value was measured at 750 nm by using a microplate reader (MULTISKAN GO, Thermo). The inhibition rate of proton pump activity was expressed as I050, which is 50% inhibition of enzyme activity, by using GraphPad Prism 5. In Table 1 below, an I050 value of 100 nM or less is indicated by +++, an I050 value of 101 to 200 nM is indicated by ++, and an I050 value of above 200 nM is indicated by +.

[2] = Pharmacokinetic profile in beagles, single oral dose; assay type: in vivo, beagle dogs; conditions: male, dog, plasma, beagle, mean n=3
Experimental: A total of 18 male beagle dogs (Marshall Beagle, Beijing) with an average weight of 9 to 11 kg were obtained, acclimatized, and distributed into a total of 6 groups, 3 dogs per test group. During the entire experiment, all beagle dogs were supplied with standardized solid food and water. The breeding room was kept under controlled and monitored conditions, while maintaining a temperature of 18° C. to 26° C., a humidity of 40% to 70%, and a light-dark cycle of 12 hours-12 hours.
The test group consisted of beagle dogs that were orally administered the vehicle as the vehicle group, beagle dogs that were orally administered control drug 1 (vonoprazan) as the comparison group, and administration group was beagle dogs orally administered with Example 7.
Blood samples were obtained from peripheral veins at 30 minutes, 1 hour, 2.5 hours, 4.5 hours, 7.5 hours, 25.5 hours, and 49.5 hours after drug administration, respectively. Blood samples were centrifuged (2 to […], 3,200 g, 10 minutes) to obtain plasma. The amount of the administered compound into the plasma samples was quantified by using LC-MS/MS. Pharmacokinetic parameters were obtained by using a non-compartmental model in Phoenix WinNonlin 6.3 software. ‘AUC0-last’ indicates the area under the time curve, ‘Cmax’ indicates the highest plasma concentration, ‘ Tmax’ indicates the time to reach the highest plasma concentration, and ‘T1/2’ indicates the half-life.

[3] = Storage stability (related substance identification test); assay type: physicochemical; conditions: for storage stability: stored at −2 to 8° C., in % (unit assumed)
Description: An attempt was made to evaluate the storage stability over time of the compound of Example 7 of the present invention and the compound of Comparative Example 1 (which is the deuterium-unsubstituted form of the compound of Example 7) depending on the presence of deuterium substitution.

## [2H]C([2H])([2H])NCc1cc(-c2ccccc2F)n(S(=O)(=O)c2ccc(F)cc2)c1 [Example 7, N-((5-(2-fluorophenyl)-1-((4-fluorophenyl)sulfonyl)-1H-pyrrol-3-yl)methyl)methan-d3-amine]
[1]; read-out: Proton pump inhibitory activity (IC50)
  IC50: 25 nM
[1]; read-out: Proton pump inhibitory activity (IC50, nM), class symbol
  IC50: ≤ 100 nM
[2]; oral single dose 0.1 mg/kg
  AUC(0-t): 99.4 ng·h/mL
  Cmax: 32.3 ng/mL
  Tmax: 0.833 h
  half-life: 1.67 h
[2]; oral single dose 0.3 mg/kg
  AUC(0-t): 808 ng·h/mL
  Cmax: 165 ng/mL
  Tmax: 1 h
  half-life: 2.93 h
[2]; oral single dose 1 mg/kg
  AUC(0-t): 2890 ng·h/mL
  Cmax: 397 ng/mL
  Tmax: 1 h
  half-life: 3.03 h
[2]; oral single dose 3 mg/kg
  AUC(0-t): 19200 ng·h/mL
  Cmax: 1430 ng/mL
  Tmax: 2.17 h
  half-life: 4.29 h
[3]; stored at −2 to 8° C. for 3 months
  storage stability, Results: Stable
[3]; 1st week
  storage stability: 98.33
[3]; 2nd week
  storage stability: 98.11
[3]; 3 months
  storage stability: 98.9
[3]; 3rd week
  storage stability: 98.11
[3]; 4th week
  storage stability: 98.20
[3]; Initial
  storage stability: 98.38
